This assay concerns RXF-631 renal. Description: NCI-60 cell line screen, 48 h.

SMILES strings stand for the structures.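 Following 48 hours of exposure in 96-well plates, responses at five concentrations were used to interpolate endpoints linearly. TGI: total growth inhibition.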

Compound `N#CC1(CCCI)CCCC1` yielded a TGI of 3.23 µM.

These data come from PubChem BioAssay (NCI).
